The values that follow are results of earlier work, collected in patent EP4741436A1, “POLYMERIZABLE COMPOSITION FOR OPTICAL MATERIAL, POLYMERIZABLE PREPOLYMER COMPOSITION FOR OPTICAL MATERIAL, CURED ARTICLE, AND METHOD FOR PRODUCING OPTICAL MATERIAL” (Mitsui Chemicals, Inc., priority 2023, dated 2025).

The pKa is the negative logarithm of the acid dissociation constant.

For the data set the following is noted: for pKa: organic acids and basic polymerization catalysts, values given in text.

Where two headings read alike, the source gives them in different places.

As for `CCS(=O)(=O)O` [ethanesulfonic acid], the pKa is reported as 1.8.

Take `C=CS(=O)(=O)O` [vinylsulfonic acid]: the pKa was -2.7. Regarding `O=S(=O)(O)c1ccccc1` [benzenesulfonic acid], the pKa is 0.7.

For the compound `CCCS(=O)(=O)O` [propanesulfonic acid], the pKa was 1.9. With `CC1(C)C2CCC1(CS(=O)(=O)O)C(=O)C2` (racemic) [10-camphorsulfonic acid, (±)-10-camphorsulfonic acid], the pKa is 1.2. The “pKa of Organic Acid” value (organic acid used in the composition of the column) is 1.17. Also, the pKa (listed as (±)-10-camphorsulfonic acid) is 1.17. As to `CCCCS(=O)(=O)O` [butanesulfonic acid], the pKa was 1.9.
